# Data: patent US9511086B2, “Method for improving immune system function by administering agents that inhibit DNA-dependent protein kinase-directed apoptosis” (The Board of Trustees of the Leland Stanford Junior …, priority 2010, dated 2016)
# What was measured:
# [1] = target: cyclin-dependent kinase 2 (Homo sapiens, UniProt P24941); conditions: concentrations of up to 100 μM; cited from earlier work
# [2] = test system: CD4+CD45RO− T cells from RA patients; test: T-cell apoptosis by flow cytometry staining for PI, RA T cells; type: cell-based, human
# Protocol: FIG. 5. Inhibition of DNA-PKcs activity protects RA T cells from apoptosis. CD4+CD45RO− T cells were isolated from 6 control donors and 7 RA patients. Cells were maintained in culture without stimulation for 48 h and then were treated with the DNA-PKcs inhibitor IC86621 (50 nM, 100 nM) or vehicle for 24 h. Cells were harvested and (A) T-cell apoptosis was measured by flow cytometry staining for PI. Representative cytometric data from one patient and one control are shown. (B) Frequencies of PI-positive T-cells in the absence and presence of the DNA-PKcs inhibitor from 6 controls and 7 RA patients are presented as mean±SEM.
# FIG. 6. Silencing of the DNA-PKcs gene reduces apoptosis in RA T cells. CD4+CD45RO− T cells were purified from 3 control donors and 3 RA patients and transfected with control or DNA-PKcs specific siRNA oligonucleotides by nucleofection. (A, B) Twenty-four hours after transfection, DNA-PKcs transcript levels were quantified by qPCR, and DNA-PKcs protein levels were detected by Western blotting. (C) T-cell apoptosis was analyzed by staining for PI. Representative data from one patient and one control are shown. (D) Cell apoptosis from 3 control and 3 RA samples are presented as mean±SEM.
# FIG. 7. […] (A) CD4+CD45RO− T cells were isolated and cultured in the presence of the indicated enzyme inhibitors for 24 h. T-cell apoptosis was quantified through flow cytometry staining for PI. (B) Cells were maintained in culture without stimulation for 48 h and then were treated with the JNK inhibitor. PI-positive T cells were measured after 24 h of treatment with the JNK inhibitor II (5 μM or 10 μM) or vehicle. Frequencies of apoptotic T cells from 6 controls and 7 RA patients are presented as mean±SEM. (C) Representative flow cytometry results from one control and one patient. (D) Flow cytometry analysis of phosphorylated JNK levels in control and RA T cells after culturing without mitogenic stimulation for 72 h. Representative data from one patient and one control are presented. (E) Expression of pJNK protein in n=6 RA and n=6 control samples at 72 h is given as MFI of FITC-pJNK. (F) Flow cytometry analysis of phosphorylated JNK levels in freshly isolated control and RA naïve CD4 T cells. Expression of pJNK protein in n=7 RA and n=7 control samples at day 0 is given as MFI of FITC-pJNK. (G) Quantification of JNK and pJNK protein expression at 72 h by Western blotting. (H) Relative expression levels of pJNK were quantified by measuring band intensities adjusted by total JNK in 6 RA patients and 6 control donors. Data are presented as mean±SEM. (I) CD4+CD45RO− T cells were purified from RA donors and transfected with control or DNA-PKcs-specific siRNA oligonucleotides by nucleofection. Twenty-four hours after transfection, DNA-PKcs and pJNK protein levels were detected by Western blotting. A representative blot from three independent experiments is shown.
# Peripheral blood mononuclear cells (PBMC) were separated from whole blood with Lymphocyte Separation Medium (Mediatech Inc., Herndon, Va.). CD45RO^− cells were negatively selected with microbeads (Miltenyi Biotec Inc., Auburn, Calif.), and the naïve CD4^+CD45RO^− population was subsequently selected with CD4 microbeads (autoMACS, Miltenyi Biotec Inc.).
# CD4^+CD45RO^− T cells were maintained in a resting state in DMEM without mitogenic stimulation for three days. In selected experiments, T-cell homeostatic cytokines were supplemented. To test for the role of signaling networks in mediating apoptosis, the following inhibitors were added to the cultures at day 0: DNA-PKcs inhibitor IC86621 (Sigma-Aldrich, St. Louis, Mo.), JNK inhibitor II (Calbiochem, La Jolla, Calif.), p38 inhibitor (Alexis Biochemicals, Plymouth Meeting, Pa., SB203580), CaM inhibitor (Calbiochem), NE-KB inhibitor (Calbiochem), and AKT inhibitor (Calbiochem). […]
# [3] = target: Rous sarcoma tyrosine kinase (Homo sapiens, UniProt P12931); conditions: concentrations of up to 100 μM; cited from earlier work
# Rous sarcoma tyrosine kinase, sequence (P12931 whole entry): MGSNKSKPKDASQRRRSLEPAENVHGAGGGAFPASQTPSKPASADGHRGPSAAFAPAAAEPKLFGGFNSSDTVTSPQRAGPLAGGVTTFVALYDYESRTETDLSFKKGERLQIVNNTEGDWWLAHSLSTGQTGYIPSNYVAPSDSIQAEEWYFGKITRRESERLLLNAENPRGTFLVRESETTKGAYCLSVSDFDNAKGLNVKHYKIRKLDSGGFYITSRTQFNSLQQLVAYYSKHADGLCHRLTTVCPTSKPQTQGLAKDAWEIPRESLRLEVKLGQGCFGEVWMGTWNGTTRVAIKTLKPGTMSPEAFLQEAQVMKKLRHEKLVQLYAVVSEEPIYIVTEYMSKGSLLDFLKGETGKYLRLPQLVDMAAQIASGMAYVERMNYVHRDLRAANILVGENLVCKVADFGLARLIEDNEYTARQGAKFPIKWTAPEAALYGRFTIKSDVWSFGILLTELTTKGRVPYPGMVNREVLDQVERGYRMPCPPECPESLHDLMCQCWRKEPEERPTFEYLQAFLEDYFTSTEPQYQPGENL
# protein kinase C = conditions: concentrations of up to 100 μM; cited from earlier work
# ATR = ATR (Homo sapiens, UniProt Q13535); conditions: concentrations of up to 100 μM; cited from earlier work
# ATR, sequence (Q13535 whole entry): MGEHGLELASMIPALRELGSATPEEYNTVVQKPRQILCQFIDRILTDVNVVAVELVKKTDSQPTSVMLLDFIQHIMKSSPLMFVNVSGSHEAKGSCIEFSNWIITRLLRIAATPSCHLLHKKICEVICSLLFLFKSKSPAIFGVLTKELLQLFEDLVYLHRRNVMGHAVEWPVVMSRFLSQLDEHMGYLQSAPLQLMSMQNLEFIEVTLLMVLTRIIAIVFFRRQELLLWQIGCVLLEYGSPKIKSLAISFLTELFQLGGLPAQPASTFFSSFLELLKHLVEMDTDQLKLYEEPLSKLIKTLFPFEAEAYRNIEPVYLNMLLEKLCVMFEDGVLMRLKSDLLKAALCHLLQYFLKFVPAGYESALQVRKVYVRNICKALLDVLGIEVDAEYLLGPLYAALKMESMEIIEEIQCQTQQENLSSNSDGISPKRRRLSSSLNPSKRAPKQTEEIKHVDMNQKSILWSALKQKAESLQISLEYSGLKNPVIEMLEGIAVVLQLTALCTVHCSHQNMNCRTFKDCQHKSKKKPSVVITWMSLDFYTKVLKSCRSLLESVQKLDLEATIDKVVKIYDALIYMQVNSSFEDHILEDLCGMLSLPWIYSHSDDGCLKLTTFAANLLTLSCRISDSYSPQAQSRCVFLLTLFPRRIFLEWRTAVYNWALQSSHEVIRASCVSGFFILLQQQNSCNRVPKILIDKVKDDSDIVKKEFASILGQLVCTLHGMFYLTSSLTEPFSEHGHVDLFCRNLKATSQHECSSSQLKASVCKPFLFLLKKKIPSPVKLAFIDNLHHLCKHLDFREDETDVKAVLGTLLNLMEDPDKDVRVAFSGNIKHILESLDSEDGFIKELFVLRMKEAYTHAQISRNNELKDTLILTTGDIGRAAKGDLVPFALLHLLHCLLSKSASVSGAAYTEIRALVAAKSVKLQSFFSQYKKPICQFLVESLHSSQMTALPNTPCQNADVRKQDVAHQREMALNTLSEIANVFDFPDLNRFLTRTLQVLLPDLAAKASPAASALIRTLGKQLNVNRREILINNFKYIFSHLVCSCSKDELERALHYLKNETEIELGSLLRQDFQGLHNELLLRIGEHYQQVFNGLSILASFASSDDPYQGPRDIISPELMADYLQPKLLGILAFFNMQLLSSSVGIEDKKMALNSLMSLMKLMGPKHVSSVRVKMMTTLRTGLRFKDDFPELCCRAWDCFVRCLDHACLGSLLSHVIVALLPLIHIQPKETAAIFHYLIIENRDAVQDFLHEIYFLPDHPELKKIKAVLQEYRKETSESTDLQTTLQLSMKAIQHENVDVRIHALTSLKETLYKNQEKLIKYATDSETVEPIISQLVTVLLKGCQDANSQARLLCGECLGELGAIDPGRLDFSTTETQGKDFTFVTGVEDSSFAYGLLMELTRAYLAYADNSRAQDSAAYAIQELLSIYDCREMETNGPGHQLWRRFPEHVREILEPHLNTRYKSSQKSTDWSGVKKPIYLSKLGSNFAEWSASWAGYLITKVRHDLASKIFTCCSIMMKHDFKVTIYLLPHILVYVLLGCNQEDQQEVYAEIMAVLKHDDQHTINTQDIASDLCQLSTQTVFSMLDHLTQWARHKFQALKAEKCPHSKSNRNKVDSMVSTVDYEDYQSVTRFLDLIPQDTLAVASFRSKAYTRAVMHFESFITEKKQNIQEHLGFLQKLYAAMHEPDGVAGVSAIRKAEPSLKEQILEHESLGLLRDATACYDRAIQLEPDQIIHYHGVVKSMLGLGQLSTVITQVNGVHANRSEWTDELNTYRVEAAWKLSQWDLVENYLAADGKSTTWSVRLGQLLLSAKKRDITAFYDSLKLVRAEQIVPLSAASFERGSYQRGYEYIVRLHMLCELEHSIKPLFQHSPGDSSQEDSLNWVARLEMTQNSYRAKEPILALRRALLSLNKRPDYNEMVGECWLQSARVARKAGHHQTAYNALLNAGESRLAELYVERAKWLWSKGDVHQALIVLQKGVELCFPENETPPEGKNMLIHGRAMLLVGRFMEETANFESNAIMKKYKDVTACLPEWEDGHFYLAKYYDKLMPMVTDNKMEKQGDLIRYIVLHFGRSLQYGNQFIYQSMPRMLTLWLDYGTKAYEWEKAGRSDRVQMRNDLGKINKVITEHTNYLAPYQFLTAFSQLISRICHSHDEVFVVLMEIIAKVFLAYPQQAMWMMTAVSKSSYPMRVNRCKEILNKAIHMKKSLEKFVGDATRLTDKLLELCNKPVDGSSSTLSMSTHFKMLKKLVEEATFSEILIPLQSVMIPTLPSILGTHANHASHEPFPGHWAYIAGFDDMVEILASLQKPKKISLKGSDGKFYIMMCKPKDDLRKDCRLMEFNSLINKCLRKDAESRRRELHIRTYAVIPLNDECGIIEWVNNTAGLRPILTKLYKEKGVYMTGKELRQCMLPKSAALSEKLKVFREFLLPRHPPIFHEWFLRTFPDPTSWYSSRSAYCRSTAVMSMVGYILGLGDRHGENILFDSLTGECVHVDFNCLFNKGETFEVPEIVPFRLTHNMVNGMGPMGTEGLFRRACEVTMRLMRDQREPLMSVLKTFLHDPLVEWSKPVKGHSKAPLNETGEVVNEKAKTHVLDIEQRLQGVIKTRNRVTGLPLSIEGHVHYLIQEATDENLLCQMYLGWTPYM
# ATR, sequence (Q8WXE1 whole entry partner): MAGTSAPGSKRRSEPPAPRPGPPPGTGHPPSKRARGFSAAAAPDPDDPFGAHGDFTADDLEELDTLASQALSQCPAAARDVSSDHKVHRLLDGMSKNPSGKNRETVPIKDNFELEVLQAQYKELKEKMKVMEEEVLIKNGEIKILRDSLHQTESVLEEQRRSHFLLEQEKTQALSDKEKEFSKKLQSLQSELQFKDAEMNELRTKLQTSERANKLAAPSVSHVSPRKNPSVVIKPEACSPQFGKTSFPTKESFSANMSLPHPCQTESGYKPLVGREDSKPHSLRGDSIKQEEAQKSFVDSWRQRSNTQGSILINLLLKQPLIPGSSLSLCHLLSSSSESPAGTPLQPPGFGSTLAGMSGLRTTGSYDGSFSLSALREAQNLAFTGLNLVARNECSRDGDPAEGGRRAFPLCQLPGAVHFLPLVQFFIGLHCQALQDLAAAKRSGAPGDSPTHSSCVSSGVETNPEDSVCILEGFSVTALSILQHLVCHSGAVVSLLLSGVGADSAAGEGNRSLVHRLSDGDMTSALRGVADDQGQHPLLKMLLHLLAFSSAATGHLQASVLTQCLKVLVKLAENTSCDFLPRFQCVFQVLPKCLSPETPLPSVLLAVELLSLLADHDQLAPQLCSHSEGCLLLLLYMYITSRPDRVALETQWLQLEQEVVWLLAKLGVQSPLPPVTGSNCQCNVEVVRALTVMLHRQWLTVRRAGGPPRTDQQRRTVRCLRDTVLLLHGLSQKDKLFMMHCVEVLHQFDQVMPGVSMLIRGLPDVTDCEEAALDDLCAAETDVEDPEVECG
# [4] = target: T1, checkpoint protein kinase 1 (Homo sapiens, UniProt O14757); conditions: concentrations of up to 100 μM; cited from earlier work
# T1 sequence (O14757 1-476): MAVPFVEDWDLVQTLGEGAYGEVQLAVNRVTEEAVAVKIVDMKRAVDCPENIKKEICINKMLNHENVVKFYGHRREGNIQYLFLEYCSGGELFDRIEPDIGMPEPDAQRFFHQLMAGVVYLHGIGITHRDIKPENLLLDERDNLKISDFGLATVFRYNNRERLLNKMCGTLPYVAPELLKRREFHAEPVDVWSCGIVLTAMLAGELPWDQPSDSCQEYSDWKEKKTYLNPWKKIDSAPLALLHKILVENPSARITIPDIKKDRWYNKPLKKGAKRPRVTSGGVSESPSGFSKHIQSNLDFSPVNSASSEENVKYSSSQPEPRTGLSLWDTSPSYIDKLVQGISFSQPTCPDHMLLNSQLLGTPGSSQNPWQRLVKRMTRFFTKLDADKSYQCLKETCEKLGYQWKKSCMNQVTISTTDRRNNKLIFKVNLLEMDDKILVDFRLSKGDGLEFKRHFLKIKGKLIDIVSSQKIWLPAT
# protein kinase A = conditions: concentrations of up to 100 μM; cited from earlier work
# casein kinase 1 = conditions: concentrations of up to 100 μM; cited from earlier work
# ATM = ATM (Homo sapiens, UniProt Q13315); conditions: concentrations of up to 100 μM; cited from earlier work
smiles,measurement,setting,value
"CC(=O)c1ccc(N2CCOCC2)cc1O [IC86621, 1-(2-hydroxy-4-morpholin-4-ylphenyl)ethanone]",activity against cyclin-dependent kinase 2,[1],neither activity
same,"protection of RA T cells from apoptosis, dose dependence","[2]; 50 nM, 100 nM",dose-dependent
same,doses at which T cell survival was improved,[2]; RA T cells,50 to 100 nM
same,survival rates among RA T cells,"[2]; RA T cells, 48 h culture then inhibitor (50 nM, 100 nM) for 24 h, PI-positive cells",improved survival rates
same,dose sufficient to normalize apoptotic susceptibility (PI-positive cells reduced to levels of control T cells),"[2]; RA T cells, 72 h ex vivo culture",100 nM
same,activity against Rous sarcoma tyrosine kinase,[3],neither activity
same,activity against protein kinase C,protein kinase C,neither activity
same,activity against ATR,ATR,neither activity
same,activity against checkpoint protein kinase 1,[4],neither activity
same,activity against protein kinase A,protein kinase A,neither activity
same,activity against casein kinase 1,casein kinase 1,neither activity
same,activity against ATM,ATM,neither activity
